We go through seven molecules from patent US8420889B2, “Epicatechin glucosyltransferase” (priority 2008, dated 2013).

This data set concerns recombinant UGT72L1-MBP. Put plainly: UGT72L1 glucosyltransferase assay with potential acceptor substrates and 14C-UDP-Glucose. As for the experimental part:
All assays were performed in triplicate for 1 hour at 30° C. along with boiled enzyme controls.
For studying pH optima, the buffers were 179 mM MES pH 5.0-7.0, and 179 mM Tris-HCl pH 7.0-9.0. Potential acceptor substrates were (−)-epicatechin, (−)-epigallocatechin, (+)-catechin, (+)-gallocatechin, procyanidins B1 and B2, cyanidin, dihydroquercetin, quercetin, kaemferol, apigenin, luteolin, liquiritigenin, daidzein and genistein (Sigma-Aldrich, St Louis, Mo.).

The mark [1] stands for this setting: UDP-glucose as sugar donor, 0.1 mM acceptor substrate, 1 hour at 30° C., pH 7.5.

For `Oc1cc(O)c2c(c1)O[C@H](c1ccc(O)c(O)c1)[C@H](O)C2` [(−)-epicatechin], where the note is “recombinant MBP-UGT72L1 fusion protein”, the Km amounted to 11.5 µM.
Regarding `Oc1cc(O)c2c(c1)O[C@H](c1cc(O)c(O)c(O)c1)[C@H](O)C2` [(−)-epigallocatechin], the “activity for glucosylation, relative to the activity with epicatechin” value under setting [1] is recorded as 27%.
Regarding `O=c1cc(-c2ccc(O)cc2)oc2cc(O)cc(O)c12` [apigenin], the “activity for glucosylation (in words)” value under setting [1] is listed as “not active”.
In the case of `O=C1c2c(O)cc(O)cc2O[C@H](c2ccc(O)c(O)c2)[C@H]1O` [dihydroquercetin], the “activity for glucosylation (in words)” value under setting [1] is “not active”.
On the same count and under the same terms, with `O=c1c(-c2ccc(O)cc2)coc2cc(O)cc(O)c12` [genistein] the entry was “not active”.
Still for that read-out and setting: as for `O=c1cc(-c2ccc(O)c(O)c2)oc2cc(O)cc(O)c12` [luteolin], the entry is “not active”.
Still for that read-out and setting: as for `O=c1c(O)c(-c2ccc(O)c(O)c2)oc2cc(O)cc(O)c12` [quercetin], the entry is “not active”.
